Target: T1, GCS (Canis lupus familiaris, UniProt A0A8I3MXG6)
T1 sequence (A0A8I3MXG6 1-394): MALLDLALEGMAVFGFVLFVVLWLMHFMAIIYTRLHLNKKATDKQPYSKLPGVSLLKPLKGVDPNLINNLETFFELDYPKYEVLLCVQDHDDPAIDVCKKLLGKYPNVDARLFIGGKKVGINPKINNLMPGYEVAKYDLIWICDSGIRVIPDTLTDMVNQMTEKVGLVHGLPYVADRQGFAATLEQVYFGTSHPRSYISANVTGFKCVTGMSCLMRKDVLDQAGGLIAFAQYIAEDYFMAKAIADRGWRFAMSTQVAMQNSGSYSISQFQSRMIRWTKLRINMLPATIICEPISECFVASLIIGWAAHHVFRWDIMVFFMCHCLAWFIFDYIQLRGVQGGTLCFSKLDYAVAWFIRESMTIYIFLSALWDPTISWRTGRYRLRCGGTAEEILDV
Assay: Assay 1: GCS Enzymatic Assay (MDCK cell lysate, C6-NBD-Ceramide, LC/MS)
Format: biochemical, canine
Conditions: Table 2; for IC50: data without asterisk, read-out: IC50 (nM) generated from Assay 1; for % inhibition generated from Assay 1: data marked by *
Summary of the method: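 LC/MS/MS measurement of glucosylceramide and NBD-ceramide after a 1 h, 37 °C reaction with 100 μM UDP-glucose and 10 μM C6-NBD-ceramide gave IC50s or percent inhibition.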

Structure (SMILES) | IC50 [nM] | % inhibition generated from Assay 1
O=C(N[C@H](CN1CCCC1)[C@H](O)c1cnc2c(c1)OCCO2)C(F)(F)c1cc2cc(Cl)ccc2o1 [Compound 185, 2-(5-chlorobenzofuran-2-yl)-N-((1R,2R)-1-(2,3-dihydro-[1,4]dioxino[2,3-b]pyridin-7-yl)-1-hydroxy-3-(pyrrolidin-1-yl)propan-2-yl)-2,2-difluoroacetamide] | – | B* (the compound had a % inhibition of greater than or equal to about 3% but less than about 50%)
O=C(N[C@H](CN1CCCC1)[C@H](O)c1ccc2c(c1)OCCO2)C(F)(F)c1ccc(-c2ccccn2)cc1 [Compound 186, N-((1R,2R)-1-(2,3-dihydrobenzo[b][1,4]dioxin-6-yl)-1-hydroxy-3-(pyrrolidin-1-yl)propan-2-yl)-2,2-difluoro-2-(4-(pyridin-2-yl)phenyl)acetamide] | – | A* (the compound had a % inhibition of a percent inhibition of greater than or equal to about 50%)
O=C(N[C@H](CN1CCC1)[C@H](O)c1cc(F)c2c(c1)OCCO2)C(=O)c1ccc2cc(Cl)ccc2c1 [Compound 188, N-((1R,2R)-3-(azetidin-1-yl)-1-(8-fluoro-2,3-dihydrobenzo[b][1,4]dioxin-6-yl)-1-hydroxypropan-2-yl)-2-(6-chloronaphthalen-2-yl)-2-oxoacetamide] | – | A* (the compound had a % inhibition of a percent inhibition of greater than or equal to about 50%)
O=C(N[C@H](CN1CCCC1)[C@H](O)c1ccc2c(c1)OCCO2)C(=O)c1ccc(-c2ccc(F)cn2)cc1 [Compound 189, N-((1R,2R)-1-(2,3-dihydrobenzo[b][1,4]dioxin-6-yl)-1-hydroxy-3-(pyrrolidin-1-yl)propan-2-yl)-2-(4-(5-fluoropyridin-2-yl)phenyl)-2-oxoacetamide] | – | A* (the compound had a % inhibition of a percent inhibition of greater than or equal to about 50%)
O=C(N[C@H](CN1CCCC1)[C@H](O)c1ccc2c(c1)OCCO2)/C(=N/O)c1ccc(-c2ccc(F)cn2)cc1 [Compound 190, (E)-N-((1R,2R)-1-(2,3-dihydrobenzo[b][1,4]dioxin-6-yl)-1-hydroxy-3-(pyrrolidin-1-yl)propan-2-yl)-2-(4-(5-fluoropyridin-2-yl)phenyl)-2-(hydroxyimino)acetamide] | – | A* (the compound had a % inhibition of a percent inhibition of greater than or equal to about 50%)
CC(C)(O)COc1ccc([C@@H](O)[C@@H](CN2CCCC2)NC(=O)C(F)(F)C2Cc3ccc(Cl)cc3C2)cc1Cl (stereo partly drawn) [Compound 192, 2-(5-chloro-2,3-dihydro-1H-inden-2-yl)-N-((1R,2R)-1-(3-chloro-4-(2-hydroxy-2-methylpropoxy)phenyl)-1-hydroxy-3-(pyrrolidin-1-yl)propan-2-yl)-2,2-difluoroacetamide] | – | A* (the compound had a % inhibition of a percent inhibition of greater than or equal to about 50%)
O=C(N[C@H](CN1CCCC1)[C@H](O)c1ccc2c(c1)OCCO2)C(=O)c1ccc(-c2ccccn2)cc1 [Compound 195, N-((1R,2R)-1-(2,3-dihydrobenzo[b][1,4]dioxin-6-yl)-1-hydroxy-3-(pyrrolidin-1-yl)propan-2-yl)-2-oxo-2-(4-(pyridin-2-yl)phenyl)acetamide] | – | A* (the compound had a % inhibition of a percent inhibition of greater than or equal to about 50%)
O=C(N[C@H](CN1CCCC1)[C@H](O)c1cc(F)c2c(c1)OCCO2)C(F)(F)c1cn2ccccc2n1 [Compound 196, 2,2-difluoro-N-((1R,2R)-1-(8-fluoro-2,3-dihydrobenzo[b][1,4]dioxin-6-yl)-1-hydroxy-3-(pyrrolidin-1-yl)propan-2-yl)-2-(imidazo[1,2-a]pyridin-2-yl)acetamide] | – | B* (the compound had a % inhibition of greater than or equal to about 3% but less than about 50%)
CN1CCCc2cc(CCC(F)(F)C(=O)N[C@H](CN3CCCC3)[C@H](O)c3ccc4c(c3)OCCO4)ccc21 [Compound 198, N-((1R,2R)-1-(2,3-dihydrobenzo[b][1,4]dioxin-6-yl)-1-hydroxy-3-(pyrrolidin-1-yl)propan-2-yl)-2,2-difluoro-4-(1-methyl-1,2,3,4-tetrahydroquinolin-6-yl)butanamide] | – | A* (the compound had a % inhibition of a percent inhibition of greater than or equal to about 50%)
O=C(N[C@H](CN1CCCC1)[C@H](O)c1ccc(OC2CC2)c(Cl)c1)C(F)(F)c1cn2ccccc2n1 [Compound 199, N-((1R,2R)-1-(3-chloro-4-cyclopropoxyphenyl)-1-hydroxy-3-(pyrrolidin-1-yl)propan-2-yl)-2,2-difluoro-2-(imidazo[1,2-a]pyridin-2-yl)acetamide] | – | B* (the compound had a % inhibition of greater than or equal to about 3% but less than about 50%)
O=C(N[C@H](CN1CCCC1)[C@H](O)c1ccc2c(c1)OCCO2)C(F)(F)c1cccc(Oc2ccc(F)cc2)c1 [Compound 201, N-((1R,2R)-1-(2,3-dihydrobenzo[b][1,4]dioxin-6-yl)-1-hydroxy-3-(pyrrolidin-1-yl)propan-2-yl)-2,2-difluoro-2-(3-(4-fluorophenoxy)phenyl)acetamide] | – | A* (the compound had a % inhibition of a percent inhibition of greater than or equal to about 50%)

Now from value to compound, other results behind:

IC50 [nM] | Structure (SMILES) | % inhibition generated from Assay 1
< 50 | O=C(N[C@H](CN1CCCC1)[C@H](O)c1ccc2c(c1)OCCO2)/C(=N/O)c1ccc(-c2ccc(F)cc2)s1 [Compound 181, (Z)-N-((1R,2R)-1-(2,3-dihydrobenzo[b][1,4]dioxin-6-yl)-1-hydroxy-3-(pyrrolidin-1-yl)propan-2-yl)-2-(5-(4-fluorophenyl)thiophen-2-yl)-2-(hydroxyimino)acetamide] | –
< 50 | O=C(N[C@H](CN1CCCC1)[C@H](O)c1ccc(OC2CC2)c(Cl)c1)C(F)(F)c1ccc(-c2ccccn2)cc1 [Compound 182, N-((1R,2R)-1-(3-chloro-4-cyclopropoxyphenyl)-1-hydroxy-3-(pyrrolidin-1-yl)propan-2-yl)-2,2-difluoro-2-(4-(pyridin-2-yl)phenyl)acetamide] | –
< 50 | O=C(N[C@H](CN1CCCC1)[C@H](O)c1cc(F)c2c(c1)OCCO2)C(F)(F)c1ccc(-c2ccc(F)cn2)cc1 [Compound 183, 2,2-difluoro-N-((1R,2R)-1-(8-fluoro-2,3-dihydrobenzo[b][1,4]dioxin-6-yl)-1-hydroxy-3-(pyrrolidin-1-yl)propan-2-yl)-2-(4-(5-fluoropyridin-2-yl)phenyl)acetamide] | –
< 50 | O=C(N[C@H](CN1CCCC1)[C@H](O)c1ccc(OC2CC2)c(Cl)c1)/C(=N/O)c1ccc(-c2ccc(F)cn2)cc1 [Compound 184, (E)-N-((1R,2R)-1-(3-chloro-4-cyclopropoxyphenyl)-1-hydroxy-3-(pyrrolidin-1-yl)propan-2-yl)-2-(4-(5-fluoropyridin-2-yl)phenyl)-2-(hydroxyimino)acetamide] | –
< 50 | O=C(N[C@H](CN1CCCC1)[C@H](O)c1cc(F)c2c(c1)OCCO2)C(F)(F)c1ccc(-c2ccccn2)cc1 [Compound 187, 2,2-difluoro-N-((1R,2R)-1-(8-fluoro-2,3-dihydrobenzo[b][1,4]dioxin-6-yl)-1-hydroxy-3-(pyrrolidin-1-yl)propan-2-yl)-2-(4-(pyridin-2-yl)phenyl)acetamide] | –
< 50 | O=C(N[C@H](CN1CCC1)[C@H](O)c1cc(F)c2c(c1)OCCO2)/C(=N/O)c1ccc2cc(Cl)ccc2c1 [Compound 191, (E)-N-((1R,2R)-3-(azetidin-1-yl)-1-(8-fluoro-2,3-dihydrobenzo[b][1,4]dioxin-6-yl)-1-hydroxypropan-2-yl)-2-(6-chloronaphthalen-2-yl)-2-(hydroxyimino)acetamide] | –
< 50 | CC(C)(O)COc1ccc([C@@H](O)[C@@H](CN2CCCC2)NC(=O)C(=O)c2ccc(-c3ccc(F)cc3)cc2)cc1Cl [Compound 194, N-((1R,2R)-1-(3-chloro-4-(2-hydroxy-2-methylpropoxy)phenyl)-1-hydroxy-3-(pyrrolidin-1-yl)propan-2-yl)-2-(4′-fluoro-[1,1′-biphenyl]-4-yl)-2-oxoacetamide] | –
< 50 | O=C(N[C@H](CN1CCCC1)[C@H](O)c1ccc2c(c1)OCCO2)C(=O)c1cccc(Oc2ccc(F)cc2)c1 [Compound 197, N-((1R,2R)-1-(2,3-dihydrobenzo[b][1,4]dioxin-6-yl)-1-hydroxy-3-(pyrrolidin-1-yl)propan-2-yl)-2-(3-(4-fluorophenoxy)phenyl)-2-oxoacetamide] | –
< 50 | O=C(N[C@H](CN1CCCC1)[C@H](O)c1cc(F)c2c(c1)OCCO2)C(=O)c1ccc(N2CCCCC2)cc1 [Compound 200, N-((2R)-1-(8-fluoro-2,3-dihydrobenzo[b][1,4]dioxin-6-yl)-1-hydroxy-3-(pyrrolidin-1-yl)propan-2-yl)-2-oxo-2-(4-(piperidin-1-yl)phenyl)acetamide] | –
< 50 | Cn1ncc2cc(-c3ccc(C(F)(F)C(=O)N[C@H](CN4CCCC4)[C@H](O)c4ccc(OC5CC5)c(Cl)c4)cc3)ccc21 [Compound 202, N-((1R,2R)-1-(3-chloro-4-cyclopropoxyphenyl)-1-hydroxy-3-(pyrrolidin-1-yl)propan-2-yl)-2,2-difluoro-2-(4-(1-methyl-1H-indazol-5-yl)phenyl)acetamide] | –
< 50 | O=C(N[C@H](CN1CCCC1)[C@H](O)c1cc(F)c2c(c1)OCCO2)C(=O)c1cccc(Oc2ccc(F)cc2)c1 [Compound 203, N-((1R,2R)-1-(8-fluoro-2,3-dihydrobenzo[b][1,4]dioxin-6-yl)-1-hydroxy-3-(pyrrolidin-1-yl)propan-2-yl)-2-(3-(4-fluorophenoxy)phenyl)-2-oxoacetamide] | –
